Series [1] deals with human breast carcinoma MDA-MB-468. Description: In vivo efficacy, MDA-MB-468 implanted s.c. Details: species or system SCID mice. As to the method: In vivo studies: SCID mice were maintained as per McGill animal safety protocols. In a preliminary model, SCID mice housed in filtered cages were implanted subcutaneously (s.c.) with the human breast carcinoma MDA-MB-468 and treatment began when the tumors were palpable (8 mice/group). […] The tumor burdens were measured with a caliper and mice were weighed twice weekly. The study was later repeated with the MDA-MB-468 cells implanted in the mammary fat pad, a model that better mimics human breast carcinoma.

Series [2] relates to DNA of MDA-MB-468 cells. Put plainly: Alkaline comet assay for DNA damage. The format is cell-based, human. To be noted: 2 h drug exposure. The method, then: Alkaline Comet Assay for quantization of DNA damage: The alkaline comet assay was performed as described in previously published procedures (19, 20). The cells were exposed to drugs for 2 h, harvested with trypsin-EDTA and re-suspended in PBS. Cell suspensions were diluted to approximately 10^6 cells, and mixed with agarose (1%) in PBS at 37° C. in a 1:10 dilution. The gels were cast on Gelbond strips (Mandel Scientific, Canada) using gel casting chambers and then immediately placed into a lysis buffer [2.5 M NaCl, 0.1 M tetra-sodium EDTA, 10 mM Tris-base and 1% (v/v) Triton X-100, pH 10.0]. After being kept on ice for 30 min, the gels were gently rinsed with distilled water and immersed in a second lysis buffer (2.5 M NaCl, 0.1 M tetrasodium EDTA, 10 mM Tris-base) containing 1 mg/ml proteinase K for 60 min at 37° C. Thereafter, the gels were rinsed with distilled water, incubated in alkaline electrophoresis buffer for 30 min at 37° C., and electrophoresed at 19 V for 20 min. […] Comets were visualized at 330× magnification and DNA damage was quantitated using the Tail Moment parameter (i.e., the distance between the barycenter of the head and the tail of the comet multiplied by the percentage of DNA within the tail of the comet). A minimum of 50 cell/comets were analyzed for each sample, using ALKOMET version 3.1 image analysis software.

A short description of series [3]: Water solubility. The format is physicochemical.
Series [4] addresses EGFR (Homo sapiens, UniProt P00533). Description: Reversibility of EGFR autophosphorylation inhibition in MDA-MB-468 cells (washout, 8 h). In kind it is cell-based. Also noted: EGF-induced EGFR autophosphorylation in MDA-MB-468 cells; endogenous in cells; host or cells: MDA-MB-468 (ATCC).
Method: To test this hypothesis, the reversibility assay described by Fry et al. (13) and Smaill et al. (14) was used, according to which the cells are treated with inhibitors (2 μM) for 2 h and then washed free of drug. After 8 h, EGF was added; after a 10-min incubation the cells were lysed, and the degree of EGFR autophosphorylation measured.
Series [5] concerns the target T1, erbB2 (Homo sapiens, UniProt P04626).
T1 construct: heregulin-induced autophosphorylation in MDA-MB-453 cells; endogenous in cells; host or cells: MDA-MB-453 (ATCC)
Put plainly: Heregulin-induced autophosphorylation in MDA-MB-453 cells (Western blot). In kind it is cell-based. The settings on record: 2 h preincubation, heregulin 10 min. The method, then:
(§1) Autophosphorylation assay: Inhibition of receptor autophosphorylation in viable cells was determined by anti-phosphotyrosine Western blots as previously described (19). […] Equal amounts of cell lysates were analyzed by Western blot using anti-phosphotyrosine antibodies. Membranes were stripped of anti-phosphotyrosine and reprobed with anti-EGFR or anti-erbB2 antibodies (NeoMarkers, Fremont, Calif.). To study whether an inhibition is reversible or not, duplicate sets of cells were treated with 2 μM of designated compound for 2 h. One set of cells was then stimulated with EGF. The other set of cells was washed free of the compound with warmed serum-free media, incubated for 2 h, washed again, incubated for another 2 h, and incubated for a further 4 h after a subsequent wash. This set of cells was then stimulated with EGF. Western blot was performed as previously described. […] The membrane was incubated with anti-phosphorylated MAPK (Erk1,2) or anti-Erk 1,2 antibodies (Cell Signaling Technology Inc., Beverly, Mass.).
In general terms: In western blotting, separated proteins are transferred to a membrane and probed.

Series [6] concerns MAPK (Erk1, 2). Description: Heregulin-stimulated MAPK phosphorylation in MDA-MB-453 cells (Western blot). In kind it is cell-based, human. As to the method: as §1
Series [7] has as its system MAPK (Erk1, 2). Put plainly: EGF-stimulated MAPK phosphorylation in MDA-MB-468 cells (Western blot). The format is cell-based, human. To be noted: at concentrations as low as 1 μM. As to the method: as §1
Series [8] concerns MDA-MB-453 cells. Description: Reversibility of antiproliferative effect, SRB assay. In kind it is cell-based, human. The method, then:
(§2) In vitro growth inhibition assay: To study the effect of the compounds on growth factor stimulated-proliferation, cells were grown to 70% of confluence in 48-well plates. […] Cell growth was measured using the sulforhodamine B (SRB) assay (24). Briefly, following drug treatment, cells were fixed using 50 μl of cold trichloroacetic acid (50%) for 60 min at 4° C., washed five times with tap water, and stained for 30 min at room temperature with SRB (0.4%) and dissolved in acetic acid (0.5%). The plates were rinsed five times with 1% acetic acid and allowed to air dry. The resulting colored residue was dissolved in 200 μl of Tris base (10 mM), and the optical density read for each well at 450 nm using a Bio-Rad microplate reader (model 2550). […] Cell growth was measured using SRB assay as described previously.
(In general: Sulforhodamine B stains cellular protein and so reports cell mass.)

In series [9] the test system is MDA-MB-468 cells. The description is as above. In kind it is cell-based, human. The method, then: as §2

Each structure is given as a SMILES string. pIC50: −log10 of the molar value. Several values for one entry are separate records, joined by “and”; a condition that tells them apart may be missing. Equal entries are not always repeated. Entries after “also recorded” stand apart in the source; their conditions may differ. Where two headings read alike, the source gives them in different places.

T1 sequence (P04626 23-1255): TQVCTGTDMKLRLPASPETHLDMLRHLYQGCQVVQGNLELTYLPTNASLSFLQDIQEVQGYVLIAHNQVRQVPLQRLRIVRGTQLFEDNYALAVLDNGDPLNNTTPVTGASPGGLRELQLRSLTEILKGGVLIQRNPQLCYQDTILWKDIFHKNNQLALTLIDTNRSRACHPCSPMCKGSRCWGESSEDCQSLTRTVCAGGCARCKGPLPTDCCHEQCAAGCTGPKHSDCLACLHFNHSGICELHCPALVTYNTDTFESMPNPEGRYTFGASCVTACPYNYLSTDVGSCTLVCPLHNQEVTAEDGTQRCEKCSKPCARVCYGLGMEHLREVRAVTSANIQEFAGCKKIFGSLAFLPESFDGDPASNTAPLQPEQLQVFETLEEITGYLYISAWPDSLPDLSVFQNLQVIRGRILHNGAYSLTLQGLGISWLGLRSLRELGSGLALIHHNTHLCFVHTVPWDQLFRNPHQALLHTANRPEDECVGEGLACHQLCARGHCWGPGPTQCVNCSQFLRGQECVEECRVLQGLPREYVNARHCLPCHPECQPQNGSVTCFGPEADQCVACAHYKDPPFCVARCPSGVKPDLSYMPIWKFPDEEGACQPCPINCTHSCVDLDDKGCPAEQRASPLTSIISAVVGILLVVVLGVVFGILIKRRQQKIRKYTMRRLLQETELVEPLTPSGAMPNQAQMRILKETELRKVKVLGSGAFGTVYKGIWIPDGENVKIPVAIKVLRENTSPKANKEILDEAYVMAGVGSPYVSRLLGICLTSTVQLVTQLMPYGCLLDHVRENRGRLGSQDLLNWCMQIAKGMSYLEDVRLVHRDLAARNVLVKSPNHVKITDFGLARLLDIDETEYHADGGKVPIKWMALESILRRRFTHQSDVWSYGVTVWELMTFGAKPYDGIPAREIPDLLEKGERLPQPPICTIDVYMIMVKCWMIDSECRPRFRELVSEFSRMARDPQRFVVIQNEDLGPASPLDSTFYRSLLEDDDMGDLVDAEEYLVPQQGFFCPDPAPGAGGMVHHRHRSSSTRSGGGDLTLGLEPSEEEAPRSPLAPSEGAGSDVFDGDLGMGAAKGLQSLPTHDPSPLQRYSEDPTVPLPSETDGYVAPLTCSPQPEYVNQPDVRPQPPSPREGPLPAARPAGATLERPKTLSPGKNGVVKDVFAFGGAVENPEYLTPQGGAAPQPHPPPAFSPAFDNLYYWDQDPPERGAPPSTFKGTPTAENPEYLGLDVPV
EGFR, sequence (P00533 25-1210): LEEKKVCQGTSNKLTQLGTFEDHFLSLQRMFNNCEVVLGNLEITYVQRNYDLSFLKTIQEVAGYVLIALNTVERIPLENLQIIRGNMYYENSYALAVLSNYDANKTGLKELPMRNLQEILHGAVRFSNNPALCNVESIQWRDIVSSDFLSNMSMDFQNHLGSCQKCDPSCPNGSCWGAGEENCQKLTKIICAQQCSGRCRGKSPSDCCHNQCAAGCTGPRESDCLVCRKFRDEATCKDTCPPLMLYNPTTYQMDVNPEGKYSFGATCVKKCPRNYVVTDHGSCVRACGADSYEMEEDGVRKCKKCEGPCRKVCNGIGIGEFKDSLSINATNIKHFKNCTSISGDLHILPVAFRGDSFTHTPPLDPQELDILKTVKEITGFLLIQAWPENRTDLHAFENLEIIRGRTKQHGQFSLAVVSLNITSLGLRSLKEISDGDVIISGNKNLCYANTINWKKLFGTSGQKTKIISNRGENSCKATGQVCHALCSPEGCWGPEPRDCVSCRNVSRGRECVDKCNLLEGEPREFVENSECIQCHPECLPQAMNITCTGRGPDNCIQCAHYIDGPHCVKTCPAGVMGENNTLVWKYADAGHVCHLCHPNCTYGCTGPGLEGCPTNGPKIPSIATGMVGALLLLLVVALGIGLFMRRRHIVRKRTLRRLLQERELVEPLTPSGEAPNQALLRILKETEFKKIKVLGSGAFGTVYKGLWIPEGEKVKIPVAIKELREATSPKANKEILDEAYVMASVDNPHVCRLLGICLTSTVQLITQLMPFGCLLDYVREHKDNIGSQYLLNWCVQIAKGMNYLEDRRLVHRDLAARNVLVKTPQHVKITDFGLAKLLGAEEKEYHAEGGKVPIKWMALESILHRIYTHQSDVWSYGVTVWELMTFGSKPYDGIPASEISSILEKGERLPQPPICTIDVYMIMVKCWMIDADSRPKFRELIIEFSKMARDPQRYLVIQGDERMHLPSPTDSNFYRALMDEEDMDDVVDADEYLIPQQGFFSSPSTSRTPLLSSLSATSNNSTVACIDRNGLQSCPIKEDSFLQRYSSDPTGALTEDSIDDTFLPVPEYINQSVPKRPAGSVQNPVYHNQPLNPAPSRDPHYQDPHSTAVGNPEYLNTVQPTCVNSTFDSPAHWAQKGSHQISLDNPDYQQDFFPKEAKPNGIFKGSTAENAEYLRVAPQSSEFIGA

Consider `ClCCNc1ccc2ncnc(Nc3cccc(Br)c3)c2c1` [ZR2002], for which the “in vivo antitumor activity” value in series [1] (50 mg/kg i.p. every 3-4 days, one month, s.c. tumors, p<0.001 vs vehicle) is given as “modest; also recorded: moderate antiproliferative activity”. The same compound registered a tolerated dose in series [1] (SCID mice, i.p.) of 50 mg/kg. Also, in series [2], the “DNA damage (tail moment), in words” value is reported as “damages DNA in a dose dependent manner”. In series [2], the “concentration inducing significant DNA damage” value turned out to be 10 µM. Besides, in series [3], the “water solubility (in words)” value was “reduced water solubility”. Besides, the “mode of EGFR inhibition (reversible / irreversible)” value in [4] is reported as “irreversible inhibitor of EGFR”. Besides, the “EGF-dependent EGFR autophosphorylation immediately after drug exposure” value in [4] (2 μM, 2 h) was “completely suppressed”. The pIC50 in series [5] is ~6.64 and 6.63; in [8] (Homo sapiens, MDA-MB-453, 120 h, read-out: IC50, growth inhibition, 120 h continuous exposure, MDA-MB-453, SRB), 6.37; in series [8] (Homo sapiens, MDA-MB-453, read-out: IC50, growth inhibition, 2 h exposure followed by 120 h recovery, MDA-MB-453, SRB) it was 5.38; in series [8] (read-out: IC50, growth inhibition, 2 h exposure followed by 120 h recovery, MDA-MB-453, SRB) it was 5.38; in [8] (read-out: IC50, growth inhibition, 120 h continuous exposure, MDA-MB-453, SRB) it was 6.37; in series [9] (Homo sapiens, MDA-MB-468, 120 h, read-out: IC50, growth inhibition, 120 h continuous exposure, MDA-MB-468, SRB), 6.44. In addition, the pIC50 was 5.13 in [9] (Homo sapiens, MDA-MB-468, read-out: IC50, growth inhibition, 2 h exposure followed by 120 h recovery, MDA-MB-468, SRB); 5.29 in series [9] (read-out: IC50, growth inhibition, 2 h exposure followed by 120 h recovery, MDA-MB-468, SRB); 6.63 in series [9] (read-out: IC50, growth inhibition, 120 h continuous exposure, MDA-MB-468, SRB). In series [6], the “heregulin-stimulated MAPK phosphorylation” value was “blocked heregulin-stimulated MAPK phosphorylation”. Further, the “inhibition of EGF-stimulated phosphorylation of MAPK” value in series [7] came out at 100%.

As usually defined, the pIC50 is the IC50 on a negative log10 scale, so that one unit is a factor of ten.

(Values after patent US7879861B2, “Combi-molecules having EGFR and DNA targeting properties” (priority 2005, dated 2011).)
